Laboratory results: US11014929B2, “Pyrazolopyrimidine compounds and uses thereof” (Incyte Corporation, priority 2016, dated 2021)

Target: HPK1 (Homo sapiens (Human), UniProt Q92918)
Test: HPK1 Kinase Binding Assay
Settings: LanthaScreen tracer 222 binding, active HPK1, one hour incubation at 25° C.
Method: A stock solution of 1 mM test compound was prepared in DMSO. The compound plate was prepared by 3-fold and 11-point serial dilutions. 0.1 μL of the compound in DMSO was transferred from the compound plate to the white 384 well polystyrene plates. The assay buffer contained 50 mM HEPES, pH 7.5, 0.01% Tween-20, 5 mM MgCl2, 0.01% BSA, and 5 mM DTT. 5 μl of 4 nM active HPK1 (SignalChem M23-11G) prepared in the buffer was added to the plate. The enzyme concentration given was based on the given stock concentration reported by the vender. 5 μl of 18 nM tracer 222 (ThermoFisher PV6121) and 4 nM LanthaScreen Eu-Anti GST antibody (ThermoFisher PV5595) were added. After one hour incubation at 25° C., the plates were read on a PHERAstar FS plate reader (BMG Labtech). Ki values were determined.

Chain of HPK1 (Q92918 1-346): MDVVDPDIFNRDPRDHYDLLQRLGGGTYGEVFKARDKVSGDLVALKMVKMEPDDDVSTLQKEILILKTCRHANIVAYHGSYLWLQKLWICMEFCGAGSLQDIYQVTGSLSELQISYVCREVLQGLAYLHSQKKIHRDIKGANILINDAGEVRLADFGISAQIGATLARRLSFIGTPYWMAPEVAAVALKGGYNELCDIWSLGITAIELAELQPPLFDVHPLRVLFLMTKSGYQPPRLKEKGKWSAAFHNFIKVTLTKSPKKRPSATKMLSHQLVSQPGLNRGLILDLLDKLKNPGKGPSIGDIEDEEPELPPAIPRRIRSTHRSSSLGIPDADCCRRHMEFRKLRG

SMILES | Ki
COc1cccc(F)c1-c1ncc2[nH]nc(-c3ccn(C)c(=O)c3)c2n1 [Example 49, 4-(5-(2-Fluoro-6-methoxyphenyl)-1H-pyrazolo[4,3-d]pyrimidin-3-yl)-1-methylpyridin-2(1H)-one] | ≤ 100 nM
COc1ccncc1-c1ncc2[nH]nc(-c3ccc(N4CCN(C)CC4)cc3)c2n1 [Example 102, 5-(4-Methoxypyridin-3-yl)-3-(4-(4-methylpiperazin-1-yl)phenyl)-1H-pyrazolo[4,3-d]pyrimidine] | ≤ 100 nM
CN1CCN(c2ccc(-c3n[nH]c4cnc(-c5c(F)cccc5Cl)nc34)cc2)CC1 [Example 4, 5-(2-Chloro-6-fluorophenyl)-3-(4-(4-methylpiperazin-1-yl)phenyl)-1H-pyrazolo[4,3-d]pyrimidine] | ≤ 100 nM
COc1cccc(F)c1-c1ncc2[nH]nc(-c3cc(C)n[nH]3)c2n1 [Example 88, 5-(2-Fluoro-6-methoxyphenyl)-3-(3-methyl-1H-pyrazol-5-yl)-1H-pyrazolo[4,3-d]pyrimidine] | ≤ 100 nM
COc1cccc(F)c1-c1ncc2[nH]nc(-c3ccc(C4CC4)cc3)c2n1 [Example 39, 3-(4-Cyclopropylphenyl)-5-(2-fluoro-6-methoxyphenyl)-1H-pyrazolo[4,3-d]pyrimidine] | ≤ 100 nM
CNCc1cc(F)c(-c2ncc3[nH]nc(-c4ccc(C(=O)NC)c(F)c4)c3n2)c(F)c1 [Example 62, 4-(5-(2,6-Difluoro-4-((methylamino)methyl)phenyl)-1H-pyrazolo[4,3-d]pyrimidin-3-yl)-2-fluoro-N-methylbenzamide] | ≤ 100 nM
CN1CCN(c2ccc(-c3n[nH]c4cnc(-c5ccccc5F)nc34)cc2)CC1 [Example 1, 5-(2-Fluorophenyl)-3-[4-(4-methylpiperazin-1-yl)phenyl]-1H-pyrazolo[4,3-d]pyrimidine] | ≤ 100 nM
CNCc1cc(F)c(-c2ncc3[nH]nc(-c4cnn(C)c4)c3n2)c(OC)c1 [Example 86, 1-(3-Fluoro-5-methoxy-4-(3-(1-methyl-1H-pyrazol-4-yl)-1H-pyrazolo[4,3-d]pyrimidin-5-yl)phenyl)-N-methylmethanamine] | ≤ 100 nM
COc1cccc(F)c1-c1ncc2[nH]nc(-c3ccsc3)c2n1 [Example 21, 5-(2-Fluoro-6-methoxyphenyl)-3-(thiophen-3-yl)-1H-pyrazolo[4,3-d]pyrimidine] | ≤ 100 nM
CNCc1cc(C)c(-c2ncc3[nH]nc(-c4ccc(N5CCN(C)CC5)cc4)c3n2)cn1 [Example 104, N-Methyl-1-(4-methyl-5-(3-(4-(4-methylpiperazin-1-yl)phenyl)-1H-pyrazolo[4,3-d]pyrimidin-5-yl)pyridin-2-yl)methanamine] | ≤ 100 nM
CCN1CCN(c2ccc(-c3n[nH]c4cnc(-c5c(F)cccc5OC)nc34)cc2)CC1 [Example 37, 3-(4-(4-Ethylpiperazin-1-yl)phenyl)-5-(2-fluoro-6-methoxyphenyl)-1H-pyrazolo[4,3-d]pyrimidine] | ≤ 100 nM
COc1ccc(-c2ncc3[nH]nc(-c4ccc(N5CCN(C)CC5)cc4)c3n2)c2c1CNCC2 [Example 100, 8-Methoxy-5-(3-(4-(4-methylpiperazin-1-yl)phenyl)-1H-pyrazolo[4,3-d]pyrimidin-5-yl)-1,2,3,4-tetrahydroisoquinoline] | ≤ 100 nM
CN1CCN(c2ccc(-c3n[nH]c4cnc(-c5cccc(C(N)=O)c5F)nc34)cc2)CC1 [Example 46, 2-Fluoro-3-(3-(4-(4-methylpiperazin-1-yl)phenyl)-1H-pyrazolo[4,3-d]pyrimidin-5-yl)benzamide] | ≤ 100 nM
COc1cccc(-c2n[nH]c3cnc(-c4c(F)cccc4OC)nc23)c1 [Example 19, 5-(2-Fluoro-6-methoxyphenyl)-3-(3-methoxyphenyl)-1H-pyrazolo[4,3-d]pyrimidine] | ≤ 100 nM
CNCc1cc(C)c(-c2ncc3[nH]nc(-c4cnn(-c5ccccc5C#N)c4)c3n2)c(F)c1 [Example 79, 2-(4-(5-(2-Fluoro-6-methyl-4-((methylamino)methyl)phenyl)-1H-pyrazolo[4,3-d]pyrimidin-3-yl)-1H-pyrazol-1-yl)benzonitrile] | ≤ 100 nM

Other lines, results leading:

Ki | SMILES
≤ 100 nM | CNC1CCCc2c1ccc(F)c2-c1ncc2[nH]nc(-c3ccc(N4CCN(C)CC4)nc3)c2n1 (stereo not drawn) [Example 120, 6-Fluoro-N-methyl-5-(3-(6-(4-methylpiperazin-1-yl)pyridin-3-yl)-1H-pyrazolo[4,3-d]pyrimidin-5-yl)-1,2,3,4-tetrahydronaphthalen-1-amine]
≤ 100 nM | CNCc1cc(F)c(-c2ncc3[nH]nc(-c4ccc(N5CCO[C@@H](COC)C5)nc4)c3n2)c(C(F)(F)F)c1 [Example 126, (R)-1-(3-Fluoro-4-(3-(6-(2-(methoxymethyl)morpholino)pyridin-3-yl)-1H-pyrazolo[4,3-d]pyrimidin-5-yl)-5-(trifluoromethyl)phenyl)-N-methylmethanamine]
≤ 100 nM | CNCc1cc(F)c(-c2ncc3[nH]nc(-c4ccc(N5CCN(CC(C)(C)O)CC5)nc4)c3n2)c(F)c1 [Example 70, 1-(4-(5-(5-(2,6-Difluoro-4-((methylamino)methyl)phenyl)-1H-pyrazolo[4,3-d]pyrimidin-3-yl)pyridin-2-yl)piperazin-1-yl)-2-methylpropan-2-ol]
≤ 100 nM | Cn1cc(-c2n[nH]c3cnc(-c4c(F)cc(NC(=O)CN5CCCC5)cc4F)nc23)cn1 [Example 82, N-(3,5-Difluoro-4-(3-(1-methyl-1H-pyrazol-4-yl)-1H-pyrazolo[4,3-d]pyrimidin-5-yl)phenyl)-2-(pyrrolidin-1-yl)acetamide]
≤ 100 nM | COc1cccc(F)c1-c1ncc2[nH]nc(-c3ccc(N4CCOCC4)nc3)c2n1 [Example 53, 4-(5-(5-(2-Fluoro-6-methoxyphenyl)-1H-pyrazolo[4,3-d]pyrimidin-3-yl)pyridin-2-yl)morpholine]
≤ 100 nM | CN1CCN(c2ncc(-c3n[nH]c4cnc(-c5c(F)cc6c(c5F)CNCC6)nc34)cn2)CC1 [Example 92, 6,8-Difluoro-7-(3-(2-(4-methylpiperazin-1-yl)pyrimidin-5-yl)-1H-pyrazolo[4,3-d]pyrimidin-5-yl)-1,2,3,4-tetrahydroisoquinoline]
≤ 100 nM | Cc1cccc(F)c1-c1ncc2[nH]nc(-c3ccc(N4CCC(O)C4)cc3)c2n1 (stereo not drawn) [Example 60, 1-(4-(5-(2-Fluoro-6-methylphenyl)-1H-pyrazolo[4,3-d]pyrimidin-3-yl)phenyl)pyrrolidin-3-ol]
≤ 100 nM | CN(C)c1ncc(-c2n[nH]c3cnc(-c4c(F)cc5c(c4F)CNCC5)nc23)cn1 [Example 93, 5-(5-(6,8-Difluoro-1,2,3,4-tetrahydroisoquinolin-7-yl)-1H-pyrazolo[4,3-d]pyrimidin-3-yl)-N,N-dimethylpyrimidin-2-amine]
≤ 100 nM | COc1cccc(F)c1-c1ncc2[nH]nc(-c3ccc(C(=O)N4CCOCC4)cc3)c2n1 [Example 31, (4-(5-(2-Fluoro-6-methoxyphenyl)-1H-pyrazolo[4,3-d]pyrimidin-3-yl)phenyl)(morpholino)methanone]
≤ 100 nM | CNCc1cc(F)c(-c2ncc3[nH]nc(-c4ccc(C5CCOCC5)cc4)c3n2)c(F)c1 [Example 66, 1-(3,5-Difluoro-4-(3-(4-(tetrahydro-2H-pyran-4-yl)phenyl)-1H-pyrazolo[4,3-d]pyrimidin-5-yl)phenyl)-N-methylmethanamine]
≤ 100 nM | COc1cccc(F)c1-c1ncc2[nH]nc(-c3ccc(N4CCOCC4)cc3)c2n1 [Example 26, 4-(4-(5-(2-Fluoro-6-methoxyphenyl)-1H-pyrazolo[4,3-d]pyrimidin-3-yl)phenyl)morpholine]
≤ 100 nM | COc1cccc(F)c1-c1ncc2[nH]nc(-c3ccc(N4CCCCC4)cc3)c2n1 [Example 40, 5-(2-Fluoro-6-methoxyphenyl)-3-(4-(piperidin-1-yl)phenyl)-1H-pyrazolo[4,3-d]pyrimidine]
≤ 100 nM | Cc1c2c(cc(F)c1-c1ncc3[nH]nc(-c4ccnc(N5CCN(C)CC5)c4)c3n1)CCNC2 [Example 107, 6-Fluoro-8-methyl-7-(3-(2-(4-methylpiperazin-1-yl)pyridin-4-yl)-1H-pyrazolo[4,3-d]pyrimidin-5-yl)-1,2,3,4-tetrahydroisoquinoline]
≤ 100 nM | CN1CCN(c2ccc(-c3n[nH]c4cnc(-c5cccc(F)c5F)nc34)cc2)CC1 [Example 44, 5-(2,3-Difluorophenyl)-3-(4-(4-methylpiperazin-1-yl)phenyl)-1H-pyrazolo[4,3-d]pyrimidine]
≤ 100 nM | COc1cccc(F)c1-c1ncc2[nH]nc(-c3ccnc(N4CCN(C)CC4)c3)c2n1 [Example 51, 5-(2-Fluoro-6-methoxyphenyl)-3-(2-(4-methylpiperazin-1-yl)pyridin-4-yl)-1H-pyrazolo[4,3-d]pyrimidine]
≤ 100 nM | CS(=O)(=O)NCc1ccc(-c2n[nH]c3cnc(-c4c(F)cc5c(c4F)CNCC5)nc23)cc1 [Example 95, N-(4-(5-(6,8-Difluoro-1,2,3,4-tetrahydroisoquinolin-7-yl)-1H-pyrazolo[4,3-d]pyrimidin-3-yl)benzyl)methanesulfonamide]
≤ 100 nM | NC1CCCc2c1cc(F)c(-c1ncc3[nH]nc(-c4ccc(N5CCOCC5)nc4)c3n1)c2F (stereo not drawn) [Example 117, 5,7-Difluoro-6-(3-(6-morpholinopyridin-3-yl)-1H-pyrazolo[4,3-d]pyrimidin-5-yl)-1,2,3,4-tetrahydronaphthalen-1-amine]
≤ 100 nM | COc1cccc(F)c1-c1ncc2[nH]nc(-c3ccc(CN4CCOCC4)cc3)c2n1 [Example 24, 4-(4-(5-(2-Fluoro-6-methoxyphenyl)-1H-pyrazolo[4,3-d]pyrimidin-3-yl)benzyl)morpholine]
